Target: rat mGluR5 (Rattus norvegicus, UniProt P31424)
Test: cell-based
Protocol: The cells were loaded with a Ca2+-sensitive fluorescent dye (e.g., Fluo-4), and the plates were washed and placed in the FDSS instrument. Test compound was applied to cells 3 seconds after baseline readings were taken. Cells were incubated with the test compounds for 140 seconds and then stimulated with an EC20 concentration of an mGluR5 agonist (e.g., glutamate, 3,5-dihydroxyphenylglycine, or quisqualate); 60-80 seconds later an EC80 concentration of agonist was added and readings taken for an additional 40 seconds. Data were collected at 1 Hz. […] Concentration response curves were generated using a four parameter logistical equation.
The above described assay was operated in two modes. In the first mode (utilizing a triple add protocol), a range of concentrations of the present compounds were added to cells, followed by two single fixed concentrations of agonist (EC20 followed by EC80). If a compound acted as a potentiator, an EC50 value for potentiation of the EC20 response and a maximum extent of potentiation by the compound at this concentration of agonist was determined by non-linear curve fitting. If a compound acted as an antagonist, an IC50 value for antagonism of the EC80 response and a maximum extent of antagonism by the compound at this concentration of agonist was determined by non-linear curve fitting. In the second mode (utilizing a double add protocol), several fixed concentrations of the present compounds were added to various wells on a plate, followed by a range of concentrations of agonist for each concentration of present compound; the EC50 values for the agonist at each concentration of compound were determined by nonlinear curve fitting. A decrease in the EC50 value of the agonist with increasing concentrations of the present compounds (a leftward shift of the agonist concentration-response curve) is an indication of the degree of mGluR5 positive allosteric modulation at a given concentration of the present compound. An increase in the EC50 value of the agonist with increasing concentrations of the present compounds (a rightward shift of the agonist concentration response curve) is an indication of the degree of mGluR5 antagonism at a given concentration of the present compound. The second mode also indicates whether the present compounds also affect the maximum response to mGluR5 to agonists.
The mGluR5 activity was determined using the metabotropic glutamate receptor activity assays in human embryonic kidney cells as described herein, wherein the human embryonic kidney cells were transfected with rat mGluR5. The mGluR5 activity data for some compounds are shown as the average of at least three experiments with the standard error in these cases. If no error is indicated for the mGluR5 activity, the values given represent the results from a single experiment or the average of two experiments.

rat mGluR5, sequence (P31424 21-1203): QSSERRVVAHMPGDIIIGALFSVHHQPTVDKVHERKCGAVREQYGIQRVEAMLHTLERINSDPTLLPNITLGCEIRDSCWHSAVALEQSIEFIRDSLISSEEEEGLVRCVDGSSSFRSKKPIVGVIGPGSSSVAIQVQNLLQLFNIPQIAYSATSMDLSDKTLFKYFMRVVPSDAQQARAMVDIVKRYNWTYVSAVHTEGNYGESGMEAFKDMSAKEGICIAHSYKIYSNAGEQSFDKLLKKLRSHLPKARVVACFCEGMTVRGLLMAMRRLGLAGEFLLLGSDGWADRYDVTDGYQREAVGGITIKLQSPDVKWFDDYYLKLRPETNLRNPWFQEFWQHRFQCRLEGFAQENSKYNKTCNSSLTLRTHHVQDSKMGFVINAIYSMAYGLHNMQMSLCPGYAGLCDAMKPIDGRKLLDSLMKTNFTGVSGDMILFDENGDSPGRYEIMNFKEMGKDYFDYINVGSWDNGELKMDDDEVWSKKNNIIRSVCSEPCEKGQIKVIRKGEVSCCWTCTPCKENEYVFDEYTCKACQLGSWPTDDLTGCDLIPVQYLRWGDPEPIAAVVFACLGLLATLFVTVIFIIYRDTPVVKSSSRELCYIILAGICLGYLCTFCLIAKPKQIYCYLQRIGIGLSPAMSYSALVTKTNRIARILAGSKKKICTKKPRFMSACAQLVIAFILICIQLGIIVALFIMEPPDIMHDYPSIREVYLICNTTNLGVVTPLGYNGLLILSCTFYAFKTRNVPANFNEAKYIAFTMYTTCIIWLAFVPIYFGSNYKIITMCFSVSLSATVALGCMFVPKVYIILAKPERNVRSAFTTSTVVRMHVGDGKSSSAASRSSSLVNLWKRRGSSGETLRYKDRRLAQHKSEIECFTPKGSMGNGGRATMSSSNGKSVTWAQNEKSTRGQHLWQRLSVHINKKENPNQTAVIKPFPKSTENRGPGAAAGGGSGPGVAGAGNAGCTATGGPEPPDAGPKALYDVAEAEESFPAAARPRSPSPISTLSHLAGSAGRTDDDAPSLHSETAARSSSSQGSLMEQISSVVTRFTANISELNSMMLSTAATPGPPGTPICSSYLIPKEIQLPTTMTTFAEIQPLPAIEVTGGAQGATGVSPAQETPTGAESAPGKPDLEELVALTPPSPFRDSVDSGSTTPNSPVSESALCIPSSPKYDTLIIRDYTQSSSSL

O=C(Nc1cncc(Oc2cncnc2)c1)c1cscn1
IC50: > 10 µM

O=C(Nc1ccnc(Oc2cccnc2)c1)c1cccc(Br)c1
IC50: > 10 µM

N#Cc1cccc(C(=O)Nc2cccc(Oc3ccc(C(F)(F)F)nc3)n2)c1
IC50: > 30 µM

CN(c1cncnc1)c1ccnc(NC(=O)c2cccc(Br)c2)c1
IC50: 0.162 µM

Cc1cccc(C(=O)Nc2cccc(Oc3cncnc3)n2)c1
IC50: 0.087 µM

N#Cc1cccc(C(=O)Nc2cncc(Oc3cccnc3)c2)c1
IC50: 0.5 µM

Cc1cccc(C(=O)Nc2cncc(Oc3cccnc3)n2)c1
IC50: 0.166 µM

N#Cc1cccc(C(=O)Nc2cncc(Oc3cccnc3)n2)c1
IC50: 0.46 µM

N#Cc1cccc(C(=O)Nc2cccc(Oc3cncnc3)n2)c1
IC50: 0.271 µM

Cc1cccc(C(=O)Nc2cncc(Oc3cccnc3)n2)n1
IC50: > 30 µM

Cc1cccc(C(=O)Nc2cncc(Oc3ccc(C(F)(F)F)nc3)n2)c1
IC50: > 10 µM

O=C(Nc1cncc(Oc2cncnc2)c1)c1cccc(C(F)(F)F)n1
IC50: > 30 µM

O=C(Nc1cncc(Oc2cncnc2)c1)c1cc(Cl)ccc1F
IC50: 0.927 µM

O=C(Nc1ccnc(Oc2cccnc2)c1)c1cccc(Cl)c1
IC50: 1.12 µM

N#Cc1cncc(C(=O)Nc2cncc(Oc3cncnc3)c2)c1
IC50: > 10 µM

O=C(Nc1cncc(Oc2cncnc2)c1)c1cccc(F)c1
IC50: > 10 µM

Cc1cccc(C(=O)Nc2cncc(Oc3ccc(C)nc3)n2)c1
IC50: > 10 µM

Cc1cccc(C(=O)Nc2cccc(Oc3cncnc3)n2)n1
IC50: > 30 µM

Cc1cccc(C(=O)Nc2cncc(Oc3ccc(C(F)(F)F)nc3)n2)n1
IC50: > 30 µM

Cc1ccc(Oc2cncc(NC(=O)c3cccc(Cl)c3)n2)cn1
IC50: > 10 µM

CN(c1cncnc1)c1ccnc(NC(=O)c2cccc(C#N)c2)c1
IC50: 2.26 µM

CN(c1cccnc1)c1ccnc(NC(=O)c2cccc(Br)c2)c1
IC50: 0.123 µM

CCN(c1cncnc1)c1cncc(NC(=O)c2cccc(C#N)c2)c1
IC50: 1.79 µM

O=C(Nc1cncc(Oc2cccnc2)n1)c1cccc(Cl)c1
IC50: 0.1 ± 0.012 µM

O=C(Nc1cncc(Oc2cncnc2)c1)c1cccc(F)n1
IC50: > 30 µM

Cc1ccc(Oc2cncc(NC(=O)c3cccc(C)n3)n2)cn1
IC50: > 30 µM

Cc1cccc(C(=O)Nc2cccc(Oc3ccc(C(F)(F)F)nc3)n2)n1
IC50: > 30 µM

Cc1cccc(C(=O)Nc2cccc(Oc3ccc(C(F)(F)F)nc3)n2)c1
IC50: > 30 µM

N#Cc1cccc(C(=O)Nc2cccc(Oc3cccnc3)n2)c1
IC50: 0.266 µM

N#Cc1csc(C(=O)Nc2cncc(Oc3cncnc3)c2)c1
IC50: > 10 µM
